Activity calls are given as the source filed them.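 How the source made its calls: active means compounds giving half or more protection of infected cells from virus-caused growth loss, again on retest; inactive means the rest.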

By EC50 is commonly meant the concentration that produces a half-maximal response. The term IC50 denotes the concentration at which inhibition is half-maximal.

In this test the test system is CEM cells HIV-1 protection, formazan growth assay. Put plainly: NCI AIDS Antiviral Assay. The note with it: for IC50: measured here: growth of uninfected CEM cells. Summed up: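 Steps: treat uninfected and HIV-1-infected human CEM cells at five drug levels; quantify growth by soluble formazan; retest any compound reaching 50% protection; classify actives from the retest.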

As for `O=C(Cn1ccnc1[N+](=O)[O-])c1ccc(F)cc1`, the EC50 was over 724 µM and the IC50 stood at 339 µM.

Take `N#Cc1c(N2CCCCC2)[nH]c(=O)n(-c2ccccc2)c1=S`: the EC50 was over 200 µM and the IC50 is over 200 µM.

For `COc1cc(/C=C/c2ccc(/C=C/c3cc(OC)c(OC)c(OC)c3)cc2)cc(OC)c1OC`, the result was inactive.

Consider `Cc1ccc(S(=O)(=O)C(C#N)c2nc3ccccc3nc2-n2cccn2)cc1` (centres undefined), for which the EC50 was over 200 µM and the IC50 was 126 µM.

Turning to `Cc1cc2c(O)c(c1)COCc1cc(C)cc(c1O)COCc1cc(C)cc(c1O)COC2`, the EC50 was over 200 µM and the IC50 came to 138 µM.

`CC1=C2C(O)C(C(C)CO)C(O)CC2(C)C(O)CC1` (centres undefined): the outcome was inactive.

`O=c1c(-c2cccc(O)c2)coc2cc(O)c(O)cc12`: the EC50 is over 200 µM and the IC50 came out at 10.5 µM.

Consider `CCN(CC)CCCNc1c2cc(OC)ccc2nc2cccc([N+](=O)[O-])c12`, for which the EC50 is over 2 µM and the IC50 amounted to 0.0407 µM.

Regarding `Cc1ccc2c(c1)N=Cc1ccccc1O2`, the EC50 was over 174 µM and the IC50 turned out to be 10.7 µM.

With `CC[C@H](OCc1ccccc1)/C(C)=C/C[C@@H](C)CO`, the EC50 was over 27.5 µM and the IC50 is over 27.5 µM.

`CN1CC(c2ccccc2)N(CCCCN2CC(c3ccccc3)N(C)CC2c2ccccc2)CC1c1ccccc1` (centres undefined): the EC50 was over 100 µM and the IC50 came out at 58.9 µM.

In the case of `COc1ccccc1NC(=S)N/N=C/c1cccc(C)n1`, the EC50 was over 200 µM and the IC50 was 2.75 µM.

For the compound `CN1CCN(C)c2nc3ccccc3nc21`, the EC50 was 15.1 µM and the IC50 is 87.1 µM.

In the case of `O=C(Cc1ccccc1[N+](=O)[O-])C(CO)c1ccccc1[N+](=O)[O-]` (centres undefined), the EC50 is over 110 µM and the 50% inhibitory concentration (IC50) was over 110 µM.

Consider `[CH2+][B-]1(C)n2ccc[n+]2[B-](C)(C)[n+]2cccn21`, for which the EC50 was over 200 µM and the IC50 is over 100 µM.

On to `N#Cc1cc2c(n(C3OC(CO)C(O)C(O)C3O)c1=S)CCCC2` (centres undefined), for which the EC50 is over 200 µM and the IC50 is over 200 µM.

As to `CN(C)C(=S)/N=c1\ssc(=Nc2ccccc2)n1C`, the outcome was inactive.

As for `COc1cc2c3c(cccc3c1)C(=O)N(CCN1CCCC1)C2=O`, the EC50 is over 200 µM and the IC50 came to 2.45 µM.

Consider `NC(=O)n1ncc(Cl)c(Cl)c1=O`, for which the EC50 is over 91.2 µM and the IC50 worked out at 47.9 µM.

In the case of `CC1(Br)C(=O)NC(=O)N(C2C=CC(CO)O2)C1N=[N+]=[N-]` (centres undefined), the EC50 is 0.724 µM and the IC50 was 7.24 µM.

Take `CN(C)C(=S)/N=c1\ss/c(=N\C(=S)N(C)C)n1-c1ccccc1`: the EC50 is over 200 µM and the IC50 is 191 µM.

Take `O=[N+]([O-])c1ccc(C=NC23CC4CC(CC(C4)C2)C3)cc1`: the outcome was inactive.

In the case of `COc1cccc2c(=O)c3c(n(C)c12)OC(C(C)C)C3` (centres undefined), the EC50 is over 339 µM and the concentration for half-maximal inhibition (IC50) was found to be 126 µM.

In the case of `COc1ccc(CNc2nc3ccccc3nc2-c2cccs2)cc1OC`, the EC50 was over 19.1 µM and the IC50 amounted to 17 µM.

In the case of `Cc1cc(/C=C/c2cc[n+](C)c3ccccc23)c(O)c2ncccc12`, the EC50 was over 398 µM and the IC50 turned out to be 0.759 µM.

Consider `CC1C(=O)N(c2ccccc2)NC12CCCc1ccccc12` (centres undefined), for which the EC50 was over 200 µM and the IC50 is 91.2 µM.

With `Cc1cc(Cl)ccc1N=C1NC(=O)C(CC(=O)Nc2ccc(Cl)cc2Cl)S1` (centres undefined), the EC50 was over 407 µM and the IC50 was 224 µM.

With `CN1CN(c2ccccc2)C2(CCN(CCc3cc4ccccc4o3)CC2)C1=O`, the EC50 is over 200 µM and the IC50 is 8.13 µM.

Turning to `C=C1C(OC(=O)C(O)C(c2ccccc2)N(C)C)CC(OC(C)=O)[C@]2(C)C1C[C@@H]1CC(=O)C(C)=C([C@@H](OC(C)=O)C2OC(C)=O)C1(C)C` (some centres undefined), the EC50 is over 93.3 µM and the IC50 was over 93.3 µM.

The values above are taken from PubChem BioAssay AID179 (DTP/NCI, 2004).
